Source: patent publication US20110033393A1, “Hydrazone Compounds and Their Use” (priority 2009, published 2011)

Biological target: T1, human TRPM5 ion channel (Homo sapiens, UniProt Q9NZQ8)
T1 sequence (Q9NZQ8 1-1165): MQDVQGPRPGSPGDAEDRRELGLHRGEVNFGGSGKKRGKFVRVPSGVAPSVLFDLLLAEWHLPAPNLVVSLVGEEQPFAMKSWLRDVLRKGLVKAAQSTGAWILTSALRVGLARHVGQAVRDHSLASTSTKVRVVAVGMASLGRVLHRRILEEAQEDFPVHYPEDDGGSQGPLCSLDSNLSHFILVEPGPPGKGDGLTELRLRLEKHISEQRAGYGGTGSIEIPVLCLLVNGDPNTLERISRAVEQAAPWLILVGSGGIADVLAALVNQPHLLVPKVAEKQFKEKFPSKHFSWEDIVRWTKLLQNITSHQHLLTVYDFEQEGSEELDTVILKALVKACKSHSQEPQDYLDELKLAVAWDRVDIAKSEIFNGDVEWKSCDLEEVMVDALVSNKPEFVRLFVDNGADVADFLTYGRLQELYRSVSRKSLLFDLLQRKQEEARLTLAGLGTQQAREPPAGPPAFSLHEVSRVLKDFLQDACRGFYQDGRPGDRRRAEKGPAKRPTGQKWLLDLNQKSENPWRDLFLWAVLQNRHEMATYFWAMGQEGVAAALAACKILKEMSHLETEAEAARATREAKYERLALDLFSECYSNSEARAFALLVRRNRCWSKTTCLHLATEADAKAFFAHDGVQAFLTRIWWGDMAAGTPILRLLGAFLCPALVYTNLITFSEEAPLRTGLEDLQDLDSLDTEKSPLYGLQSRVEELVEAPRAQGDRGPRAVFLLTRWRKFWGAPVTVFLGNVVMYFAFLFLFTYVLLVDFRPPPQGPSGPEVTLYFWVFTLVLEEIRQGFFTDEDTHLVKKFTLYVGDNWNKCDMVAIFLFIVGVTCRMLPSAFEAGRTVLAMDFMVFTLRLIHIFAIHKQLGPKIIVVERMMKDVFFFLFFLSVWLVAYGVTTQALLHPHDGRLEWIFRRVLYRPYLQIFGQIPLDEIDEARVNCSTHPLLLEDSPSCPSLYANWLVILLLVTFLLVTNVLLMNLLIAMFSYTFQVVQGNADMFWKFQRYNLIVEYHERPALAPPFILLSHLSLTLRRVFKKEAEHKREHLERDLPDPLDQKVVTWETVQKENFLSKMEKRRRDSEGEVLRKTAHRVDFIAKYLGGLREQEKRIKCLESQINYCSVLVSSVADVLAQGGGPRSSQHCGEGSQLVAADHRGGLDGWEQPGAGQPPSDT
Assay: FLIPR-based assay for membrane potential and calcium mobilization (TRPM5 inhibiting activity)
Format: cell-based
Conditions: live cells, 30° C., read-out: hTrpM5 IC50
Description: The activity of compounds of the present invention on human TRPM5 ion channel was measured using the FLIPR-based (fluorescent imaging plate reader) assay for membrane potential and calcium mobilization described in U.S. Patent Application Publication No. 2008/0249189 A1 in live cells, wherein the assay is performed at 30° C. Determinations of affinity and efficacy were derived from measurements of TRPM5 activity over a range of compound concentrations. The concentration range was achieved by 10 serial dilutions (either 2-fold or 3-fold decrements) from a maximum concentration of no greater that 100 μM. Curver fitting was performed on the resulting data to yield concentration-effect functions, from which the half-maximal inhibitory concentration (IC50) was derived for all the tested compounds. The IC50 values were considered to be accurate reflections of affinity between the compounds and TRPM5.
Representative compounds of the present invention have been tested in the FLIPR assay for TRPM5 inhibiting activity, which is described in detail above.

Structure (SMILES) | IC50 [nM]
COc1cc(/C=N/NC(=O)CCn2cc(C)c3c(C)cccc32)ccc1OCc1ccccc1 [Example 12, N′-(4-(Benzyloxy)-3-methoxybenzylidene)-3-(3,4-dimethyl-1H-indol-1-yl)propanehydrazide] | 80
COc1cc(/C=N/NC(=O)CCn2cc(C)c3c(C)cccc32)ccc1OCc1cccnn1 [Example 19, 3-(3,4-Dimethyl-1H-indol-1-yl)-N′-(3-methoxy-4-(pyridazin-3-ylmethoxy)benzylidene)propanehydrazide] | 180
COc1ccc(C=NNC(=O)[C@@H]2C[C@H]2c2cnc3ccccc3c2)cc1OC (relative stereo) [Example 38, trans-N′-(3,4-Dimethoxybenzylidene)-2-(quinolin-3-yl)cyclopropanecarbohydrazide] | 610
COc1cc(/C=N/NC(=O)CCn2cc(C)c3c(C)cccc32)ccc1OCc1cccnc1 [Example 16, 3-(3,4-Dimethyl-1H-indol-1-yl)-N′-(3-methoxy-4-(pyridin-3-ylmethoxy)benzylidene)propanehydrazide] | 53
COc1ccc(/C=N/NC(=O)CCn2cc(C)c3c(CO)cccc32)cc1OC [Example 50, N′-(3,4-Dimethoxybenzylidene)-3-(4-(hydroxymethyl)-3-methyl-1H-indol-1-yl)propanehydrazide] | 260
Cc1cn(CCC(=O)N/N=C/c2ccc3c(c2)OCCCO3)c2ccccc12 [Example 58, N′-((3,4-dihydro-2H-benzo[b][1,4]di-oxepin-7-yl)methylene)-3-(3-methyl-1H-indol-1-yl)propanehydrazide] | 180
COc1ccnc2ccc(/C=N/NC(=O)CCn3cc(C)c4ccccc43)cc12 [Example 63, N′-((4-methoxyquinolin-6-yl)methylene)-3-(3-methyl-1H-indol-1-yl)propanehydrazide] | 120
Cc1cc(C=NNC(=O)C2CC2c2ccccc2)cc2cccnc12 (single isomer, unassigned) [11 (E2), trans-N′-((8-Methylquinolin-6-yl)methylene)-2-phenylcyclopropanecarbohydrazide, E2 enantiomer] | 240
Cc1cccc2c1c(C)cn2CCC(=O)N/N=C/c1ccc2c(c1)OCCCO2 [Example 45] | 24
COc1ccc(/C=N/NC(=O)CSc2cccc(CO)c2)cc1OC [Example 67, N′-(3,4-dimethoxybenzylidene)-2-(3-(hydroxymethyl)phenylthio)-acetohydrazide] | > 30000
Cc1cn(CCC(=O)NN=Cc2ccc3nnccc3c2)c2ccccc12 [Example 34, N′-(Cinnolin-6-ylmethylene)-3-(3-methyl-1H-indol-1-yl)propanehydrazide] | 430
Cc1cn(CCC(=O)N/N=C/c2ccc3cccnc3c2)c2ccccc12 [Example 68, 3-(3-methyl-1H-indol-1-yl)-N′-(quinolin-7-ylmethylene)-propanehydrazide] | > 30000
COc1cc(/C=N/NC(=O)CCn2cc(C)c3c(C)cccc32)ccc1OCc1ccccn1 [Example 13, 3-(3,4-Dimethyl-1H-indol-1-yl)-N′-(3-methoxy-4-(pyridin-2-ylmethoxy)benzylidene)propanehydrazide] | 66
COc1cccc([C@@H]2C[C@H]2C(=O)N/N=C/c2cc(C)c3ncccc3c2)n1 (relative stereo) [Example 42, trans-2-(6-Methoxypyridin-2-yl)-N′-((8-methylquinolin-6-yl)methylene)cyclopropanecarbohydrazide] | 410
COc1ccc(/C=N/NC(=O)CCn2cnc3c(C)cccc32)cc1OC [Example 17, N′-(3,4-Dimethoxybenzylidene)-3-(4-methyl-1H-benzo[d]imidazol-1-yl)propanehydrazide] | 2400
Cc1cc(/C=N/NC(=O)C2CC2c2ccc(Cl)cn2)cc2cccnc12 (stereo not drawn) [Example 43, trans-2-(5-Chloropyridin-2-yl)-N′-((8-methylquinolin-6-yl)methylene)cyclopropanecarbohydrazide] | 5400

Structure (SMILES) | IC50 [nM]
COc1cc(F)c(/C=N/NC(=O)CCn2cc(C)c3c(C)cccc32)cc1OC [Example 8, 3-(3,4-Dimethyl-1H-indol-1-yl)-N′-(2-fluoro-4,5-dimethoxybenzylidene)propanehydrazide] | 3
COc1ccc(/C=N/NC(=O)[C@@H]2C[C@H]2c2cccc(C)n2)cc1OC (relative stereo) [Example 37, trans-N′-(3,4-Dimethoxybenzylidene)-2-(6-methylpyridin-2-yl)cyclopropanecarbohydrazide] | 3200
Cc1cc(/C=N/NC(=O)[C@@H]2C[C@H]2c2cccc(Cl)c2)cc2cccnc12 (relative stereo) [Example 29, trans-2-(3-Chlorophenyl)-N′-((8-methylquinolin-6-yl)methylene)cyclopropanecarbohydrazide] | 800
COc1cccc(CCC(=O)N/N=C/c2cc(C)c3ncccc3c2)n1 [Example 26, 3-(6-Methoxypyridin-2-yl)-N′-((8-methylquinolin-6-yl)methylene)propanehydrazide] | 2000
COc1ccc(/C=N/NC(=O)CSc2ccccc2)cc1OC [Example 55, N′-(3,4-dimethoxybenzylidene)-2-(phenylthio)acetohydrazide] | 660
Cc1cc(/C=N/NC(=O)CCc2cn(C)c3ccccc23)cc2cccnc12 [Example 23, 3-(1-Methyl-1H-indol-3-yl)-N′-((8-methylquinolin-6-yl)methylene)propanehydrazide] | 160
COc1ccc(/C=N/NC(=O)CCc2cn(C)c3c(C)cccc23)cc1OC [Example 48, N′-(3,4-Dimethoxybenzylidene)-3-(1,7-dimethyl-1H-indol-3-yl)propanehydrazide] | 9
COc1ccc(/C=N/NC(=O)CCn2cc(C)c3cccnc32)cc1OC [Example 14, N′-(3,4-Dimethoxybenzylidene)-3-(3-methyl-1H-pyrrolo[2,3-b]pyridin-1-yl)propanehydrazide] | 680
COc1ccc(/C=N/NC(=O)C(C)S(=O)(=O)c2cccc(Cl)c2)cc1OC (centres unmarked) [Example 51, 2-(3-Chlorophenylsulfonyl)-N′-(3,4-dimethoxybenzylidene)propanehydrazide] | 1700
COc1ccc(/C=N/N(C)C(=O)C2CC2c2ccccc2)cc1OC (stereo not drawn) [Example 9, trans-N′-(3,4-Dimethoxybenzylidene)-N-methyl-2-phenylcyclopropanecarbohydrazide] | 5000
Cc1ccc2cc(/C=N/NC(=O)CCn3cc(C)c4ccccc43)ccc2n1 [Example 69, 3-(3-methyl-1H-indol-1-yl)-N′-((2-methylquinolin-6-yl)methylene)-propanehydrazide] | > 30000
Cc1cnc2ccc(/C=N/NC(=O)CCn3cc(C)c4ccccc43)cc2c1 [Example 61, 3-(3-methyl-1H-indol-1-yl)-N′-((3-methylquinolin-6-yl)methylene)-propanehydrazide] | 210
COc1cc(/C=N/NC(=O)[C@@H]2C[C@H]2c2ccccc2)cc2cccnc12 (relative stereo) [Example 22, trans-N′-((8-Methoxyquinolin-6-yl)methylene)-2-phenylcyclopropanecarbohydrazide] | 90
COc1cc(C)c2cc(/C=N/NC(=O)CCn3cc(C)c4ccccc43)ccc2n1 [Example 52, N′-((2-Methoxy-4-methylquinolin-6-yl)methylene)-3-(3-methyl-1H-indol-1-yl)propanehydrazide] | 2000
COc1ccc(/C=N/NC(=O)CCn2ccc3c(C)cccc32)cc1OC [Example 57, N′-(3,4-dimethoxybenzylidene)-3-(4-methyl-1H-indol-1-yl)propanehydrazide] | 12
Cc1cn(CCC(=O)N/N=C/c2ccc3c(c2)OCCN3C)c2ccccc12 [Example 60, 3-(3-methyl-1H-indol-1-yl)-N′-((4-methyl-3,4-dihydro-2H-benzo[b][1,4]-oxazin-7-yl)methylene)propanehydrazide] | 750
